Columns and labels:
[1] = tested on: mitochondrial fatty acid oxidation using palmitoyl CoA as substrate; assay: Palmitoyl CoA oxidation in isolated rat heart mitochondria; type: biochemical; conditions: 15 min at 30° C.
Procedure: (§1) Rat heart mitochodria were isolated by the method of Nedergard and Cannon (Methods in Enzymol. 55, 3, 1979).
(§2) Palmitoyl CoA oxidation—The Palmitoyl CoA oxidation was carried out in a total volume of 100 microliters containing the following agents: 110 mM KCl, 33 mM Tris buffer at pH 8, 2 mM KPi, 2 mM MgCl2, 0.1 mM EDTA, 14.7 microM defatted BSA, 0.5 mM malic acid, 13 mM carnitine, 1 mM ADP, 52 micrograms of mitochondrial protein, and 16 microM 1-C14 palmitoyl CoA (Sp. Activity 60 mCi/mmole; 20 microCi/ml, using 5 microliters per assay). The compounds of this invention were added in a DMSO solution at the following concentrations: 100 microM, 30 microM, and 3 microM. In each assay, a DMSO control was used. After 15 min at 30° C., the enzymatic reaction was centrifuged (20,000 g for 1 min), and 70 microliters of the supernatant was added to an activated reverse phase silicic acid column (approximately 0.5 ml of silicic acid). The column was eluted with 2 ml of water, and 0.5 ml of the eluent was used for scintillation counting to determine the amount of C^14 trapped as C^14 bicarbonate ion. The data are presented as % activity of control.

[2] = Metabolic stability in human liver S-9 fractions; type: in vitro ADME; conditions: for Liver S-9 stability factor: % parent remaining after 30 min in human liver S-9 divided by average % of ranolazine remaining (57%)
Procedure: Metabolic Stability: As a measure of metabolic stability the compounds of this invention were incubated with human liver S-9 microsomal fractions. After, 30 minutes at 37 C, the amount of parent drug remaining was determined using LC-mass spec. The response factors for each compound was determined by establishing a standard curve and using an internal standard during the analysis of the samples. An average of five experiments for percentage of ranolazine remaining at the 30 minute time point is 57%. The compounds of this invention were assayed as described in the protocol below and the percentage of parent remaining was divided by the average % of ranolazine remaining (57%) affording a metabolic stability factor. A compound with a stability number greater than 1.2 has a better stability than ranolazine in the liver S-9 assay. A compound with a stability number between 1.2 and 0.8 has an equivalent stability in the liver S-9 assay.
The purpose of this experiment is to compare the percentages remaining for compounds of this invention with the percentage remaining for ranolazine after 30 minutes of incubation with human liver S9 fractions.
The following reagents were used; Potassium phosphate, 0.5M […]. (incubation buffer), kept at room temperature; 0.05M MgCl2 kept at 4° C.; β-Nicotinamide adenine dinucleotide phosphate, tetrasodium salt, reduced form (NADPH), 0.02M solution in water (˜16.6 mg/mL) from Sigma Lot # 79H7044 prepared on day of use. 1 mM of ranolazine or Compounds 7, 9, and 10-13 in ACN further diluted to obtain 100 μM in 10% ACN; Human S9 stock: 20 mg/mL from Gentest Lot 3.
Incubation mixtures were prepared as follows:
Combine all components with incubation buffer and re-pipette 200 μL/tube+25 μL of the compound being tested along with 25 μL of S-9.
After 5 min of pre-incubation at 37° C., at 0 and 30 min after starting the reaction, a 50 μl aliquot of the incubation mixture was removed and added to 100 μL of 9:1 acetonitrile:methanol containing the internal standard.
The mixture was centrifuged and a 100 μL aliquot of the supernatant was diluted in 1 mL of solvent C (0.1% Formic Acid in water). Then samples were analyzed for change between the ratio of compound to internal standard at time zero and 30 minutes by LC/MS (injected 10 μL).
Samples were analyzed for the starting compounds and potential metabolite/s by LC/MS using an internal standard on a Micromass platform mass spec with a Keystone Inc. BDS ODS-C18 column with a flow rate of 0.25 ml/min.

[3] = tested on: mitochondrial fatty acid oxidation using palmitoyl carnitine as substrate; assay: Palmitoyl carnitine oxidation in isolated rat heart mitochondria; type: biochemical; conditions: 15 min at 30° C.
Procedure: as §1
as §2, with “Carnitine Oxidation—The” for “CoA oxidation—The”, “carnitine” for “CoA”, “0.1 mg/ml of” for “14.7 microM”, “3” for “13 mM carnitine, 1”, “43” for “16”

COc1ccccc1OCC(O)CN1CCN(CC(=O)Nc2c(C)cccc2C)CC1 (racemic) [Ranolazine, (±)-N-(2,6-dimethylphenyl)-4-[2-hydroxy-3-(2-methoxyphenoxy)-propyl]-1-piperazineacetamide, reference compound]
Palmitoyl CoA oxidation activity, % of DMSO control ([1]; 30 μM compound): 90%
Palmitoyl CoA oxidation activity, % of DMSO control ([1]; 100 μM compound): 75%
Liver S-9 stability factor [2]: 1.0
percentage of parent drug remaining at the 30 minute time point ([2]; human liver S-9, 30 minutes at 37 C, 10 μM, average of five experiments): 57%
Palmitoyl carnitine oxidation remaining, % activity of DMSO control ([3]; 30 μM compound): 98%
Palmitoyl carnitine oxidation remaining, % activity of DMSO control ([3]; 100 μM compound): 63%

Cc1cccc(C)c1NC(=O)CN(C)CCN(C)CC(O)COc1ccc2c(c1)OCO2 (stereo not shown) [Compound 7, 2-({2-[(3-(2H-benzo[d]1,3-dioxolen-5-yloxy)-2-hydroxypropyl)methylamino]ethyl}methylamino)-N-(2,6-dimethylphenyl)acetamide]
Liver S-9 stability factor [2]: 1.51

COc1ccccc1OCC(O)CN(C)CCN(C)CC(=O)Nc1c(C)cccc1C (stereo not shown) [Compound 9]
Palmitoyl CoA oxidation activity, % of DMSO control ([1]; 100 μM compound): 8.83%

Cc1cccc(C)c1NC(=O)CN(C)CCN(C)CC(O)COc1c(Cl)cccc1Cl (stereo not shown) [Compound 10]
Palmitoyl CoA oxidation activity, % of DMSO control ([1]; 100 μM compound): 23%

COc1ccccc1CC(O)CN(C)CCN(C)CC(=O)Nc1c(C)cccc1C (stereo not shown) [Compound 11]
Palmitoyl CoA oxidation activity, % of DMSO control ([1]; 100 μM compound): 8%

Cc1cccc(C)c1NC(=O)CN(C)CCN(C)CC(O)Cc1cccc2ccccc12 (stereo not shown) [Compound 12]
Palmitoyl CoA oxidation activity, % of DMSO control ([1]; 100 μM compound): 26.5%

CCN(CCN(CC)CC(O)COc1ccccc1OC)CC(=O)Nc1c(C)cccc1C (stereo not shown) [Compound 13]
Palmitoyl CoA oxidation activity, % of DMSO control ([1]; 100 μM compound): 67.8%

CCN(CCN(CC)CC(O)COc1c(Cl)cccc1Cl)CC(=O)Nc1c(C)cccc1C (stereo not shown) [Compound 14]
Palmitoyl CoA oxidation activity, % of DMSO control ([1]; 100 μM compound): 97.1%

CCN(CCN(CC)CC(O)c1ccccc1Cl)CC(=O)Nc1c(C)cccc1C (stereo not shown) [Compound 17]
Palmitoyl CoA oxidation activity, % of DMSO control ([1]; 100 μM compound): 34.3%
Liver S-9 stability factor [2]: 0.01

CCN(CCN(CC)CC(O)c1ccccc1F)CC(=O)Nc1c(C)cccc1C (stereo not shown) [Compound 18]
Palmitoyl CoA oxidation activity, % of DMSO control ([1]; 100 μM compound): 54.8%

CCN(CCN(CC)CC(O)Cc1ccc2c(c1)OCO2)CC(=O)Nc1c(C)cccc1C (stereo not shown) [Compound 19]
Palmitoyl CoA oxidation activity, % of DMSO control ([1]; 100 μM compound): 26%
Palmitoyl carnitine oxidation remaining, % activity of DMSO control ([3]; 100 μM compound): 97.1%

Cc1cccc(C)c1NC(=O)CN(C)CCN(C)CC(O)Cc1ccc2c(c1)OCO2 (stereo not shown) [Compound 20]
Liver S-9 stability factor [2]: 1.59
Palmitoyl carnitine oxidation remaining, % activity of DMSO control ([3]; 100 μM compound): 98.7%

Cc1cccc(C)c1NC(=O)CN(C)CCCN(C)CC(O)Cc1ccccc1 (stereo not shown) [Compound 21]
Liver S-9 stability factor [2]: 0.08
Palmitoyl carnitine oxidation remaining, % activity of DMSO control ([3]; 100 μM compound): 4.9%

Cc1cccc(C)c1NC(=O)CN(C)CCCN(C)CC(O)Cc1ccc2c(c1)OCO2 (stereo not shown) [Compound 22]
Palmitoyl CoA oxidation activity, % of DMSO control ([1]; 100 μM compound): 12.5%
Liver S-9 stability factor [2]: 1.58
Palmitoyl carnitine oxidation remaining, % activity of DMSO control ([3]; 100 μM compound): 97%

Reference: patent US6638970B2, “Substituted alkylene diamine compounds” (CV Therapeutics, Inc., priority 2000, dated 2003)
